From the METLIN SMRT retention time set (Domingo-Almenara et al. 2019)

Experiment: gradient 5% acetonitrile 3 min, to 50% in 2 min, to 85% in 15 min, held 3 min, 100 µL/min
Details: column: Zorbax Extend-C18 2.1 x 50 mm; eluents: water / acetonitrile, 0.1% formic acid
In short: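 Retention time was recorded from adduct peaks, which were picked computationally and each inspected manually. Pure standards ran in mixtures of ~100 molecules on HPLC coupled to a quadrupole time-of-flight mass spectrometer, in positive and negative ionization mode, through a Zorbax Extend-C18 column (2.1 × 50 mm, 1.8 μm) at 100 μL/min. Eluents were water and acetonitrile, each with 0.1% formic acid.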

Row | SMILES | RP-LC retention time [s]
1 | O=C(C1CCOCC1)N1CCC(c2noc(-c3ccccn3)n2)C1 (stereo not drawn) | 599
2 | CC1CN(C2CCCCC2)c2nc3c(c(=O)n(CC(=O)O)c(=O)n3C)n2C1 (stereo not drawn) | 773
3 | COc1cccc(S(=O)(=O)N2CCN(c3cc(C)nc(NC4CCCCC4)n3)CC2)c1 | 795
4 | N[C@@H]1CCCCN(c2c(F)cc3c(=O)c(C(=O)O)cn(C4CC4)c3c2Cl)C1 | 707
5 | Nc1ncnc2c1nc(Br)n2C1O[C@H]2COP(=O)(O)O[C@@H]2[C@@H]1O (stereo partly drawn) | 549
6 | COc1ccc(CNC(=O)c2nnn(Cc3nc(-c4ccccc4)oc3C)c2N)cc1OC | 859
7 | CC(C)S(=O)(=O)c1cc2c(cc1NC(=O)c1cccc(F)c1)n(C)c(=O)n2C | 846
8 | O=C(C1CCN(c2cncnc2N2CCCCC2)CC1)N1CCN(C2CCCCC2)CC1 | 557
9 | CC(C)n1nnc2cc(C(=O)N(C)CC(=O)Nc3ccc(F)cc3)ccc21 | 726
10 | CCc1ccccc1NC(=O)C1CCN(S(=O)(=O)c2ccc3c(c2)sc(=O)n3CC)CC1 | 932
11 | CC(C)Cn1c(=O)c2cc(C(=O)NC(C)c3ccccc3)nn2c2ccccc21 (stereo not drawn) | 1090
12 | COc1cccc(-c2ccc(=O)n(Cc3nc(-c4ccc(OC(C)C)cc4)no3)n2)c1 | 1140
13 | CN1CCN(C(CNC(=O)c2ccc(Br)o2)c2ccc(N(C)C)cc2)CC1 (stereo not drawn) | 566
14 | Fc1ccc(-c2csc(Cc3nc(-c4ccc(Cl)cc4)no3)n2)cc1 | 1310
15 | O=C(Cc1nnc(-c2ccccc2)o1)NCc1ccncc1 | 566
16 | CCCCn1c(=O)c2ccccc2n(Cc2nc(-c3ccc(Cl)c(F)c3)no2)c1=O | 1110
17 | CCc1[nH]nc(S(=O)(=O)N2CCN(c3ccccn3)CC2)c1C(=O)OC | 560
18 | CCc1nnc2c(=O)n(CC(=O)NCc3ccccc3F)c3cccnc3n12 | 685
19 | O=C(NCCc1ccccc1)c1cc2sccc2n1Cc1ccc(Cl)cc1 | 1210
20 | CC(=O)c1ccc(NC(=O)CSc2ncc(-c3ccc(C)c(C)c3)o2)cc1 | 970
21 | CCc1ccc(CNC(=O)Cn2c(C)cc(-c3nnc(C4CCC4)o3)c2C)cc1 | 965
22 | O=S(=O)(Nc1ccc(F)cc1)c1cccnc1Nc1cccc(Cl)c1 | 1130

Row | SMILES | RP-LC retention time [s]
23 | COc1ccc2nc(NC3=NCN(Cc4ccco4)CN3)nc(C)c2c1 | 640
24 | CCOC(=O)C1CCN(c2cc3c(cc2NC(=O)NCc2ccc(C)cc2)n(C)c(=O)n3C)CC1 | 842
25 | CCNS(=O)(=O)c1cccnc1Nc1ccc(C)c(Cl)c1 | 1110
26 | CCCCN(C)c1ccc(NC(=O)c2cccs2)cc1C(=O)O | 623
27 | CCOc1ccc(NC(=O)Nc2nccn(-c3ccc(F)cc3)c2=O)cc1 | 939
28 | Cc1ccccc1CNC(=O)C1(C)CCCN(C(=O)Nc2ccccc2C)C1 (stereo not drawn) | 959
29 | CCc1nc(-n2cccc2)sc1C(=O)Nc1cc(C)ccc1F | 1180
30 | Cc1cccc(-c2ncccc2CNS(=O)(=O)c2cccc(C#N)c2)c1 | 700
31 | CCOc1ccc(CNC(=O)c2cc(NC(C)=O)cc3nc(C)ccc23)cc1 | 620
32 | N#Cc1ccc(-c2nc(-c3ccc4c(c3)nnn4CCC(=O)N3CCOCC3)no2)c(F)c1 | 674
33 | COc1ccc(-c2nc3cnc(Br)cn3c2Nc2ccc3c(c2)OCO3)cc1 | 926
34 | CCN(CC)CCCn1c(C)cc2c(c1=O)C(c1ccccc1OC)C(C#N)=C(N)O2 (stereo not drawn) | 626
35 | CCNC(=O)N(CC(=O)N1CCc2sccc2C1COc1ccccc1)C(C)CC (stereo not drawn) | 892
36 | O=c1cc(-c2ccncc2)nc(N2CCCC2)n1Cc1ccccc1 | 1200
37 | CCc1cccc(NC(=O)Cn2c(CC)nc3c(c2=O)CN(Cc2ccccc2)CC3)c1 | 718
38 | COC(=O)c1cc(Cl)ccc1NC(=O)COc1nc(C)nc2ccccc12 | 897
39 | O=C(NCc1ccccn1)c1ccc(=O)n(Cc2ccccc2)n1 | 573
40 | Cc1ccc(-c2noc(CN3C(=O)COc4ccc(C(C)(C)C)cc43)n2)cc1C | 1390
41 | CC1CCC2(CC1)NC(=O)N(CC(=O)Nc1ccc3c(c1)OCCO3)C2=O (stereo not drawn) | 783
42 | COc1ccc(-c2cc3n(n2)CCCN(C(=O)c2cc4ccccc4[nH]2)C3)cc1 | 893
43 | CC(CCc1ccccc1)NC(=O)CCC(=O)N1CCc2c(c(C(=O)N3CCOCC3)nn2C)C1 (stereo not drawn) | 679
44 | CO[C@@H](Cc1ccc(OCCc2nc(-c3ccccc3)oc2C)c2ccsc12)C(=O)O | 1160

Row | SMILES | RP-LC retention time [s]
45 | Cc1nc(C)c(C(=O)Nc2nc(-c3ccc(-c4ccccc4)cc3)cs2)s1 | 1210
46 | Cc1cccc(OCc2nnc(SCC(=O)Nc3nc(-c4ccccc4)c(C)s3)o2)c1 | 932
47 | COc1cc(C2=NN(C(C)=O)C(c3cccnc3)O2)cc(OC)c1OC(C)=O (stereo not drawn) | 728
48 | COc1ccc2c(c1[N+](=O)[O-])CC[C@@H]1[C@@H]2CC[C@]2(C)C(=O)CC[C@@H]12 | 1050
49 | Cn1c(=O)c2nc(S(=O)(=O)CCC(=O)Nc3ccc(F)c(F)c3)n(C)c2n(C)c1=O | 758
50 | COc1ccc(Cl)cc1NC(=O)NCCc1nc2cccnc2n1CC(C)C | 770
51 | CCOC(=O)C1=C(CN(C)Cc2ccccc2)NC(=O)NC1c1ccccc1 (stereo not drawn) | 652
52 | COc1ccc(S(=O)(=O)N2CCC(c3noc(C4CC4)n3)C2)cc1 (stereo not drawn) | 847
53 | Cc1cccc(CNC(=O)c2cn3cccc(C)c3n2)c1 | 675
54 | CN1C(=O)c2cc(C(=O)NC3CCCC3)nn2CC1(C)C(=O)NCc1ccc(F)cc1 (stereo not drawn) | 719
55 | O=C(NCc1ccc(Cl)cc1)c1ccc(NC(=O)C2CC2)cc1N1CCOCC1 | 843
56 | COc1ccc(NC(=O)Cn2nc3cc(C)nc(Nc4ccc(F)c(C)c4)n3c2=O)cc1 | 1070
57 | Cc1ccc(C2=NC3(CCN(C(=O)c4cnccn4)CC3)ON2)cc1 | 680
58 | O=C(CSc1nnc(-c2cccc(Br)c2)o1)c1ccc([N+](=O)[O-])cc1 | 1020
59 | O=C(NC1CCCCCCC1)C1CCCN(c2nc3ccccc3n(Cc3ccccc3)c2=O)C1 (stereo not drawn) | 1370
60 | CC(CCc1ccccc1)NC(=O)CN1CCCN(Cc2ccccc2Cl)S1(=O)=O (stereo not drawn) | 1070
61 | O=C(Cn1nc2c3cc(-c4ccc(F)cc4)nn3ccn2c1=O)NCc1ccco1 | 796
62 | O=C(Nc1ccnn1Cc1ccccc1)c1cc(=O)c2cc(Br)ccc2o1 | 907
63 | COCCN1C(=O)Cc2ccccc2C1C(=O)NCc1cc(F)ccc1F (stereo not drawn) | 738
64 | Cc1cccc2c(C(=O)NC3CC3)cc(=O)[nH]c12 | 614
65 | CC(C)NC(=O)c1ccc(-c2nc3cc(NS(=O)(=O)c4ccc(F)cc4)ccc3n2C)cc1 | 684
66 | CN(C)c1cc(C(=O)NCc2ccncc2)nc2ccnn12 | 581

Row | SMILES | RP-LC retention time [s]
67 | Cc1cccc(N2CCN(C(=O)CN3C(=O)CN(C)C(=O)c4ccccc43)CC2C)c1 (stereo not drawn) | 671
68 | COc1ccc2c(c1)-c1nc(NC(=O)c3ccccc3Cl)sc1CC2 | 1110
69 | CCC1c2nccn2CCCN1C(=O)CCc1c(C)noc1C (stereo not drawn) | 623
70 | Cc1nn(-c2ccccc2)c2sc(C(=O)Oc3ccc(F)cc3)cc12 | 1380
71 | CC(=O)Nc1ccc(NC(=S)NC(=O)c2ccc(C(C)(C)C)cc2)cc1 | 986
72 | O=C(Cn1cccc1-c1nc(-c2ccc(Cl)cc2)cs1)NCc1ccccn1 | 795
73 | CC1CN=C2C=C(N3CCN(C(=O)Nc4ccccc4Cl)CC3)N=CN21 (stereo not drawn) | 618
74 | COc1ccccc1CNC(=O)Cn1nc2cc(-c3ccccn3)nc(C)n2c1=O | 629
75 | CCc1noc(-c2ccc(-n3ncc(C(=O)NC(C)C)c3C)nc2)n1 | 837
76 | Cn1ncc2c3ccccc3n(CC(=O)NCCCN3CCCCC3)c2c1=O | 580
77 | O=C(Nc1nnc(C2CC(=O)N(c3ccc(F)cc3)C2)o1)c1ccccc1 (stereo not drawn) | 711
78 | COc1ccc(CSc2nnc3c(S(=O)(=O)N4CCCC4)cccn23)cc1F | 825
79 | CC(C)Oc1ccc(-c2noc(CN3N=NC4C(=O)N(c5ccc(F)cc5)C(=O)C43)n2)cc1 (stereo not drawn) | 1070
80 | O=C(NCc1csc(-c2ccccc2)n1)C1CCN(S(=O)(=O)c2ccc(F)cc2)CC1 | 910
81 | O=C(c1ccccc1-c1ocnc1C(=O)N1CCOCC1)N1CCCCC1 | 652
82 | COCCCNC(=O)c1nc(Nc2ccc(F)cc2)c2ccccc2n1 | 696
83 | Cc1ccc(N2C=C(C(=O)N3CCCC3)S(=O)(=O)c3ccccc32)cc1F | 813
84 | Cn1ccc2ccn(CC(=O)NCc3ccc(Cl)cc3)c(=O)c21 | 768
85 | CC(=O)N1CCC(C(=O)Nc2ncc(C)s2)CC1 | 617
86 | O=C(NCc1ccc2c(c1)OCO2)c1c(O)c2cccnc2[nH]c1=O | 889
87 | CN1C(=O)c2cccn2CC1C(=O)Nc1cccc(Cl)c1 (stereo not drawn) | 730
88 | CSc1ccc(-c2noc(Cc3nnc(-c4ccc(F)cc4)o3)n2)cc1 | 1070
